In patent US8048879B2, “Substituted 4,5,6,7-tetrahydro-isoxazolo[4,5-c]pyridine compounds and use thereof for producing medicaments” (Gruenenthal GmbH, priority 2005, dated 2011):

Assays:
NA transporter = molecular target: T1, NA transporter (Rattus norvegicus, UniProt Q9WTR4); test: Noradrenalin (NA) uptake inhibition, synaptosomes from rat brain (hypothalamus); format: biochemical
T1 construct: from tissue; host or cells: rat brain (hypothalamus), synaptosomes, P2 fraction
Excerpt: b) Method for Determining Noradrenalin and 5-HT Uptake Inhibition:
Synaptosomes from rat brain regions are freshly isolated for in vitro studies, as described in the publication “The isolation of nerve endings from brain” by E. G. Gray and V. P. Whittaker, J. Anatomy 96, pages 79-88, 1962. The corresponding literature description is hereby introduced as a reference and is deemed to be part of the disclosure.
The tissue (hypothalamus for the determination of noradrenalin uptake inhibition and medulla and pons for the determination of 5-HT uptake inhibition) is homogenised in ice-cooled 0.32 M sucrose (100 mg of tissue/1 mL) in a glass homogeniser with Teflon pestle using five complete up and down strokes at 840 revolutions/minute.
The homogenate is centrifuged at 4° C. for 10 minutes at 1000 g. After subsequent centrifugation at 17000 g for 55 minutes, the synaptosomes (P2 fraction) are obtained, which are resuspended in 0.32 M […] (0.5 mL/100 mg of original weight).
The particular uptake is measured in a 96-well microtitre plate. The volume is 250 μL and the incubation proceeds at room temperature (approx. 20-25° C.) under an O2 atmosphere.
The incubation time is 7.5 minutes for [^3H]-NA and 5 minutes for [^3H]-5-HT. The 96 samples are then filtered through a Unifilter GF/B® microtitre plate (Packard) and washed with 200 mL of incubated buffer using a “Brabdel MPXRI-96T Cell-Harvester”. The Unifilter GF/B plate is dried for 1 hour at 55° C. The plate is then sealed with a Back Seal® (Packard) and 35 μL of scintillation fluid are added per well (Ultima Gold®, Packard). After sealing with a top Seal® (Packard) and establishing an equilibrium (around 5 hours), radioactivity is determined in a “Trilux 1450 Microbeta” (Wallac).
The quantity of protein used in the above determination corresponds to the values known from the literature, as for example described in “Protein measurement with the folin phenol reagent”, Lowry et al., J. Biol. Chem., 193, 265-275, 1951.
A detailed description of the method may additionally be found in the literature, for example in M. Ch. Frink, H.-H. Hennies, W. Engelberger, M. Haurand and B. Wilffert (1996) Arzneim.-Forsch./Drug Res. 46 (III), 11, 1029-1036.
The following characteristics were determined for the NA or 5-HT transporter: […]

5-HT transporter = molecular target: T2, 5-HT transporter (Rattus norvegicus, UniProt P31652); test: 5-HT uptake inhibition, synaptosomes from rat brain (medulla and pons); format: biochemical
T2 construct: from tissue; host or cells: rat brain (medulla and pons), synaptosomes, P2 fraction
Procedure, shortened: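 Freshly isolated rat brain synaptosomes (P2 fraction): hypothalamus for NA uptake, medulla/pons for 5-HT uptake. Uptake of [3H]-NA (7.5 min) or [3H]-5-HT (5 min) at room temperature under O2, stopped by filtration over GF/B. Retained radioactivity counted by scintillation.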

T2 sequence (P31652 whole entry): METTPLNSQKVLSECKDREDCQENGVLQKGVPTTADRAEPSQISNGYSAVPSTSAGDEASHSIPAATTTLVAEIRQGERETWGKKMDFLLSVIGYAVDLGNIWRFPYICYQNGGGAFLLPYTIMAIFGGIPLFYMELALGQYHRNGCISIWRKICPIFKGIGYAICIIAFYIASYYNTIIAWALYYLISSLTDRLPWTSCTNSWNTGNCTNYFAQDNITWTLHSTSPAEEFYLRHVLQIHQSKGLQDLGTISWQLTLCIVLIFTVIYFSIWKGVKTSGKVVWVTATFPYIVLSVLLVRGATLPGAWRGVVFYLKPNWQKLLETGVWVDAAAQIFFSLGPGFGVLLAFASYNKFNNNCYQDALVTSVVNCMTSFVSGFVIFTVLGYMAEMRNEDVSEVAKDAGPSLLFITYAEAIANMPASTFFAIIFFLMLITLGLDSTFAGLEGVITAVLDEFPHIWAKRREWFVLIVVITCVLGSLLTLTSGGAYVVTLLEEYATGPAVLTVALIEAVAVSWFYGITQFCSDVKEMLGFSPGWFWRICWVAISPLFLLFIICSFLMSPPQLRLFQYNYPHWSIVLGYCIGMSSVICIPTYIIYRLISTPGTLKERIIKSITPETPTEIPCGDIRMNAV
T1 sequence (Q9WTR4 1-597): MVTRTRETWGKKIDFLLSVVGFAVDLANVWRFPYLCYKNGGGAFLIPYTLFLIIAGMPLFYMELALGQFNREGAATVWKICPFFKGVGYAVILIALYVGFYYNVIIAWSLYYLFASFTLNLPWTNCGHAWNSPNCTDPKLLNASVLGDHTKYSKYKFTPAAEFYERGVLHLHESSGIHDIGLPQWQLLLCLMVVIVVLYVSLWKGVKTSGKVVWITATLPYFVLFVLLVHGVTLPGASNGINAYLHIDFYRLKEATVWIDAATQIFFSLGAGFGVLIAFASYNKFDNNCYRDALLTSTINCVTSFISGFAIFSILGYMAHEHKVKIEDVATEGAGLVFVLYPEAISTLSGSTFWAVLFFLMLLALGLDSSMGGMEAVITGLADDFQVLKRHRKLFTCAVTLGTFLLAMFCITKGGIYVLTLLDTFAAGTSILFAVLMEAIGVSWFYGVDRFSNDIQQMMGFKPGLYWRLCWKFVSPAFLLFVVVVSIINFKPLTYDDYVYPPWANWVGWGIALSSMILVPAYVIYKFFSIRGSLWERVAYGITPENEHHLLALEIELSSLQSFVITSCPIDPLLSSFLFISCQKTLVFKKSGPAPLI

Row | SMILES | inhibition at 10 µM (NA transporter) [%] | other results
1 | COc1ccc(Cl)cc1NC(=O)N1CCc2onc(C(=O)NCC(C)C)c2C1 [Example 24, 6,7-dihydro-4H-isoxazolo[4,5-c]pyridine-3,5-dicarboxylic acid 5-[(5-chloro-2-methoxyphenyl) amide] 3-(isobutyl-amide)] | – | NA Uptake (rat), 10 μM, % inhibition (NA transporter): 51%
2 | CCC(C)(CC(=O)O)CC(=O)N1CCc2onc(C(=O)Nc3ccccc3)c2C1 (centres unmarked) [Example 29, 3-ethyl-3-methyl-5-oxo-5-(3-phenylcarbamoyl-6,7-dihydro-4H-isoxazolo[4,5-c]pyridin-5-yl)-pentanoic acid] | 44 | –
3 | O=C(c1noc2c1CN(S(=O)(=O)c1ccc(OC(F)(F)F)cc1)CC2)N(CCc1ccccc1)Cc1ccccc1 [Example 32, 5-(4-trifluoromethoxy-benzenesulfonyl)-4,5,6,7-tetrahydro-isoxazolo[4,5-c]pyridine-3-carboxylic acid benzyl-phenethyl amide] | 82 | –
4 | O=C(NCCCc1ccccc1)c1noc2c1CN(S(=O)(=O)c1ccc(F)cc1)CC2 [Example 35, 5-(4-fluoro-benzenesulfonyl)-4,5,6,7-tetrahydro-isoxazolo[4,5-c]pyridine-3-carboxylic acid (3-phenyl-propyl) amide] | 73 | –
5 | CC(CCc1ccccc1)NC(=O)c1noc2c1CN(S(=O)(=O)c1ccc(F)cc1)CC2 (centres unmarked) [Example 38, 5-(4-fluoro-benzenesulfonyl)-4,5,6,7-tetrahydro-isoxazolo[4,5-c]pyridine-3-carboxylic acid (1-methyl-3-phenyl-propyl) amide] | 66 | –
6 | O=C(NC1CCN(Cc2ccc(C(F)(F)F)cc2)C1)c1noc2c1CN(S(=O)(=O)c1ccc(F)cc1)CC2 (centres unmarked) [Example 39, 5-(4-fluoro-benzenesulfonyl)-4,5,6,7-tetrahydro-isoxazolo[4,5-c]pyridine-3-carboxylic acid [1-(4-trifluoromethyl-benzyl)-pyrrolidin-3-yl]amide] | 61 | –
7 | O=C(NC1CCCC1OCc1ccccc1)c1noc2c1CN(S(=O)(=O)c1cc(Cl)ccc1Cl)CC2 (centres unmarked) [Example 40, 5-(2,5-dichloro-benzenesulfonyl)-4,5,6,7-tetrahydro-isoxazolo[4,5-c]pyridine-3-carboxylic acid (2-benzyloxy-cyclopentyl) amide] | 71 | –
8 | CCOC(=O)N1CCC(NC(=O)c2noc3c2CN(S(=O)(=O)c2ccc(F)cc2)CC3)CC1 [Example 43] | – | NA Uptake (rat), 10 μM, % inhibition (NA transporter): 63%
9 | O=C(NC1CCCC1)c1noc2c1CN(C(=O)C=Cc1ccccc1)CC2 [Example 44, 5-(3-phenyl-acryloyl)-4,5,6,7-tetrahydro-isoxazolo[4,5-c]pyridine-3-carboxylic acid cyclopentyl amide] | 76 | –
10 | O=C(Cc1ccc(F)c(F)c1)N1CCN(C(=O)c2noc3c2CN(S(=O)(=O)c2ccc(F)cc2)CC3)CC1 [Example 48, 2-(3,4-difluoro-phenyl)-1-{4-[5-(4-fluoro-benzenesulfonyl)-4,5,6,7-tetrahydro-isoxazolo[4,5-c]pyridine-3-carbonyl]-piperazin-1-yl}-ethanone] | 61 | –
11 | CN(C)S(=O)(=O)N1CCc2onc(C(=O)N3CCOCC3)c2C1 [Example 49, 3-(morpholine-4-carbonyl)-6,7-dihydro-4H-isoxazolo[4,5-c]pyridine-5-sulfonic acid dimethyl amide] | 73 | –
12 | O=C(NCc1cccs1)c1noc2c1CN(C(=O)c1ccco1)CC2 [Example 50, 5-(furan-2-carbonyl)-4,5,6,7-tetrahydro-isoxazolo[4,5-c]pyridine-3-carboxylic acid (thiophen-2-ylmethyl) amide] | 71 | –
13 | CC12CCC(C(=O)N3CCc4onc(C(=O)NCCN5CCCC5)c4C3)(OC1=O)C2(C)C (centres unmarked) [Example 51, 5-(4,7,7-trimethyl-3-oxo-2-oxa-bicyclo[2.2.1]heptane-1-carbonyl)-4,5,6,7-tetrahydro-isoxazolo[4,5-c]pyridine-3-carboxylic acid (2-pyrrolidin-1-yl-ethyl) amide] | 73 | –
14 | O=C(NCCN1CCOCC1)c1noc2c1CN(S(=O)(=O)c1cc(Cl)c(Cl)s1)CC2 [Example 63, 5-(4,5-dichloro-thiophene-2-sulfonyl)-4,5,6,7-tetrahydro-isoxazolo[4,5-c]pyridine-3-carboxylic acid (2-morpholin-4-yl-ethyl) amide] | 77 | –
15 | O=C(NC1CCCC1)c1noc2c1CN(C(=O)COc1ccc(Cl)cc1)CC2 [Example 81, 5-[2-(4-chlorophenoxy)-acetyl]-4,5,6,7-tetrahydro-isoxazolo[4,5-c]pyridine-3-carboxylic acid cyclopentyl amide] | 68 | –
16 | CC(CCc1ccccc1)NC(=O)c1noc2c1CN(S(=O)(=O)c1ccc(OC(F)(F)F)cc1)CC2 (centres unmarked) [Example 96, 5-(4-trifluoromethoxy-benzenesulfonyl)-4,5,6,7-tetrahydro-isoxazolo[4,5-c]pyridine-3-carboxylic acid (1-methyl-3-phenyl-propyl) amide] | 63 | –
17 | O=C(NC1CCN(Cc2ccc(C(F)(F)F)cc2)C1)c1noc2c1CN(S(=O)(=O)c1ccccc1)CC2 (centres unmarked) [Example 103, 5-benzenesulfonyl-4,5,6,7-tetrahydro-isoxazolo[4,5-c]pyridine-3-carboxylic acid [1-(4-trifluoromethyl-benzyl)-pyrrolidin-3-yl] amide] | 91 | –
18 | CC(CNC(=O)c1noc2c1CN(S(=O)(=O)c1cccs1)CC2)c1ccccc1 (centres unmarked) [Example 104, 5-(thiophene-2-sulfonyl)-4,5,6,7-tetrahydro-isoxazolo[4,5-c]pyridine-3-carboxylic acid (2-phenyl-propyl) amide] | 77 | –
19 | O=C(NCCc1ccccc1)c1noc2c1CN(C(=O)c1ccc(F)c(Cl)c1)CC2 [Example 105, 5-(3-chloro-4-fluoro-benzoyl)-4,5,6,7-tetrahydro-isoxazolo[4,5-c]pyridine-3-carboxylic acid phenethyl amide] | 62 | –
20 | COc1ccc(OCCNC(=O)c2noc3c2CN(S(=O)(=O)c2ccc(C)cc2)CC3)cc1 [Example 109, 5-(toluene-4-sulfonyl)-4,5,6,7-tetrahydro-isoxazolo[4,5-c]pyridine-3-carboxylic acid [2-(4-methoxy-phenoxy)-ethyl] amide] | 64 | –
21 | O=C(c1noc2c1CN(S(=O)(=O)c1cc(Cl)ccc1Cl)CC2)N1CCN(c2ccccc2Cl)CC1 [Example 110, [4-(2-chlorophenyl)-piperazin-1-yl]-[5-(2,5-dichloro-benzenesulfonyl)-4,5,6,7-tetrahydro-isoxazolo[4,5-c]pyridin-3-yl]-methanone] | 86 | –
22 | CCOC(=O)CCNC(=O)c1noc2c1CN(C(=O)c1c(F)ccc(C)c1F)CC2 [Example 111, 3-{[5-(2,6-difluoro-3-methyl-benzoyl)-4,5,6,7-tetrahydro-isoxazolo[4,5-c]pyridine-3-carbonyl]-amino}-propionic acid ethyl ester] | 66 | –
23 | O=C(NCCN1CCCC1)c1noc2c1CN(S(=O)(=O)c1cccc(Cl)c1)CC2 [Example 118, 5-(3-chloro-benzenesulfonyl)-4,5,6,7-tetrahydro-isoxazolo[4,5-c]pyridine-3-carboxylic acid (2-pyrrolidin-1-yl-ethyl) amide] | 63 | –
24 | O=C(NCC1CC1)c1noc2c1CN(C(=S)NCc1ccc(Cl)cc1)CC2 [Example 129, 5-(4-chloro-benzylthiocarbamoyl)-4,5,6,7-tetrahydro-isoxazolo[4,5-c]pyridine-3-carboxylic acid cyclopropylmethyl amide] | – | inhibition at 10 µM (5-HT transporter): 75%
25 | Cc1ccc(CNC(=O)c2noc3c2CN(C(=S)Nc2c(F)c(F)c(F)c(F)c2F)CC3)o1 [Example 133, 5-pentafluorophenylthiocarbamoyl-4,5,6,7-tetrahydro-isoxazolo[4,5-c]pyridine-3-carboxylic acid (5-methyl-furan-2-ylmethyl) amide] | – | 5-HT uptake (rat), 10 μM, % inhibition (5-HT transporter): 63%
26 | CCOC(=O)CCNC(=O)c1noc2c1CN(C(=S)NCC1CCCCC1)CC2 [Example 134, 3-{[5-(cyclohexylmethyl-thiocarbamoyl)-4,5,6,7-tetrahydro-isoxazolo[4,5-c]pyridine-3-carbonyl]-amino}-propionic acid ethyl ester] | – | inhibition at 10 µM (5-HT transporter): 61%
